Residue numbers refer to the chain shown, from its start. Like-named read-outs stand apart in the source and are kept apart here.
What was measured:
[1] = biological target: T1, human androgen receptor (hAR) (Homo sapiens, UniProt P10275); assay: Competitive binding analysis on baculovirus/Sf9 generated hAR extracts with 3H-DHT tracer; settings: hAR extract, 1 nM 3H-DHT, one hour at 4° C, mean of multiple tests
T1 construct: made in house; host or cells: baculovirus/Sf9 insect cells (crude extract)
T1 sequence (P10275 1-920): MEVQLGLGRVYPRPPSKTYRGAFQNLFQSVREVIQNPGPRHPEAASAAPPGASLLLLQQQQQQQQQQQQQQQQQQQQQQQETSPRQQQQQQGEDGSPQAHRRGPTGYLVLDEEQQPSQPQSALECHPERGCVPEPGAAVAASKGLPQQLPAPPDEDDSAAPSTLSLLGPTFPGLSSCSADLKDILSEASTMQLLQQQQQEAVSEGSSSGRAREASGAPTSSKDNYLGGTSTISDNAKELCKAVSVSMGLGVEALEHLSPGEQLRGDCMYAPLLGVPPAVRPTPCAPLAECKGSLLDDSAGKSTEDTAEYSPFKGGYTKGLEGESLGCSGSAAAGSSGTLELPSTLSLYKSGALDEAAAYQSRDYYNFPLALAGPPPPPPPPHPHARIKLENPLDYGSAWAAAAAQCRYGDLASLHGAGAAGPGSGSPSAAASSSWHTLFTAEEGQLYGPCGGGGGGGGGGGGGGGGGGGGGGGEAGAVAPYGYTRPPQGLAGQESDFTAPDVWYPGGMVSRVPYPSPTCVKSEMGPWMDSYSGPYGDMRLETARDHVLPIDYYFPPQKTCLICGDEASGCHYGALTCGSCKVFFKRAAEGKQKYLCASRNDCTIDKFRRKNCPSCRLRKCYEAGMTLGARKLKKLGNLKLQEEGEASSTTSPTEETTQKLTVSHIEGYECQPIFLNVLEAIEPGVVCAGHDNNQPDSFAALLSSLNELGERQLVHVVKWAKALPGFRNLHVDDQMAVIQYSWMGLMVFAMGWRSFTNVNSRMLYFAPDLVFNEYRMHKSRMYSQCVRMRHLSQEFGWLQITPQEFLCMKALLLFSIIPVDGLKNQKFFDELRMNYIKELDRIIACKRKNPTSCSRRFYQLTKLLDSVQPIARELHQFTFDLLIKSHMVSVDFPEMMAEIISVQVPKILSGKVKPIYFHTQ
Method in brief: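 Baculovirus/Sf9-expressed hAR extract incubated with hydroxylapatite, 1 nM 3H-DHT and decreasing compound concentrations for 1 h at 4 °C, then washed three times to remove unbound tracer. Bound 3H-DHT compared with no-competitor maximum; affinity given as concentration inhibiting half of maximum binding, mean of multiple tests.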

androgen receptor = biological target: T2, androgen receptor (Homo sapiens, UniProt P10275); assay: AR antagonist cell assay (MDA-MB453-MMTV clone 54-19 luciferase reporter, 100 pM DHT); type: cell-based; settings: MDA-MB453-MMTV clone 54-19, inhibition of 100 pM DHT induction, 17 hr; mean of multiple tests; read-out: AR Cell IC50
T2 sequence (P10275 1-920 Q868H): T1 sequence (P10275 1-920) with Q868H
Procedure: The compounds ability to antagonize the effects of androgen on the androgen receptor were determined in a whole cell assay as described immediately below.
Experimental Procedure for AR Antagonist Cell Assay
This cell line is a stable transfected cell line with MDA-MB453 cell background (a human breast tumor cell line expressing androgen receptor). A MMTV minimal promoter containing ARE was first cloned in front of a firefly luciferase reporter gene. Then the cascade was cloned into transfection vector pUV120puro. […] Puromycin resistant stable cell line was selected. Cell Culture Media and Reagents:
Plating medium: DMEM (phenol red free), 10% charcoal treated HyClone serum, 1% L-glutamine
Assay medium: DMEM (phenol red free), 1% charcoal treated HyClone serum, 1% L-glutamine, and 1% penicillin/streptomycin
• 1. Cells are maintained in culture medium, splitting cells when they reach 80-90% confluence • 2. To test compounds, 10,000 cells/well are plated to opaque 96 cell culture plate in 100 ul/well plating medium, culture for overnight at 37° C. in cell culture incubator • 3. […] Add 10 ul/well freshly prepared DHT (final concentration at 100 pM) to each well, incubate at 37° C. for 17 hr (overnight) • 5.
The results are reported as the mean of multiple tests as described below (the numbers of tests are indicated in the footnote). N.D. denotes that the compound was not tested.

Row | SMILES | IC50 ([1]; read-out: AR Binding IC50) | IC50 (androgen receptor) | IC50 ([1]; AR Binding IC50 (nM))
1 | Cc1ccc(CCNC(=O)C(CC(C)C)Oc2ccc(C#N)c(C(F)(F)F)c2)cc1 (centres unmarked) [Example 47, 2-(4-Cyano-3-trifluoromethyl-phenoxy)-4-methyl-pentanoic acid-(2-p-tolyl-ethyl)amide] | 144 nM | > 1000 nM | 
2 | COc1ccccc1CCNC(=O)C(CC(C)C)Oc1ccc(C#N)c(C(F)(F)F)c1 (centres unmarked) [Example 48, 2-(4-Cyano-3-trifluoromethyl-phenoxy)-4-methyl-pentanoic acid-[2-(2-methoxyphenyl)-ethyl]-amide] | 123 nM | > 1000 nM | 
3 | Cc1cccc(CCNC(=O)C(CC(C)C)Oc2ccc(C#N)c(C(F)(F)F)c2)c1 (centres unmarked) [Example 49, 2-(4-Cyano-3-trifluoromethyl-phenoxy)-4-methyl-pentanoic acid-(2-m-tolyl-ethyl)amide] | 75 nM | > 1000 nM | 
4 | CC(C)CC(Oc1ccc(C#N)c(C(F)(F)F)c1)C(=O)NCC(C)Oc1ccccc1 (centres unmarked) [Example 53, 2-(4-Cyano-3-trifluoromethyl-phenoxy)-4-methyl-pentanoic acid-(2-phenoxypropyl)-amide] | 59 nM | 299 nM | 
5 | CC(C)CC(Oc1ccc(C#N)c(C(F)(F)F)c1)C(=O)NC1CCc2ccccc21 (centres unmarked) [Example 54, 2-(4-Cyano-3-trifluoromethyl-phenoxy)-4-methyl-pentanoic acid indan-1-yl-amide] | 70 nM | 836 nM | 
6 | CCCC(Oc1ccc(C#N)c(C(F)(F)F)c1)C(=O)NCC(C)Oc1ccccc1 (centres unmarked) [Example 55, 2-(4-Cyano-3-trifluoromethyl-phenoxy)-pentanoic acid-(2-phenoxy-propyl)-amide] | 182 nM | 393 nM | 
7 | CCCC(Oc1ccc(C#N)c(C(F)(F)F)c1)C(=O)NCCOc1ccccc1 (centres unmarked) [Example 56, 2-(4-Cyano-3-trifluoromethyl-phenoxy)-pentanoic acid-(2-phenoxy-ethyl)-amide] | 157 nM | 790 nM | 
8 | CCCC(Oc1ccc(C#N)c(C(F)(F)F)c1)C(=O)NC1CCc2ccccc21 (centres unmarked) [Example 57, 2-(4-Cyano-3-trifluoromethyl-phenoxy)-pentanoic acid indan-1-yl-amide] | 146 nM | 561 nM | 
9 | COc1cccc(CCNC(=O)C(CC(C)C)Oc2ccc(C#N)c(C(F)(F)F)c2)c1 (centres unmarked) [Example 58, 2-(4-Cyano-3-trifluoromethyl-phenoxy)-4-methyl-pentanoic acid-[2-(3-methoxyphenyl)-ethyl]-amide] | 64 nM | > 1000 nM | 
10 | CC(C)CC(Oc1ccc(C#N)c(C(F)(F)F)c1)C(=O)NCCc1c[nH]c2ccccc12 (centres unmarked) [Example 59, 2-(4-Cyano-3-trifluoromethyl-phenoxy)-4-methyl-pentanoic acid [2-(1H-indol-3-yl)ethyl]amide] | 48 nM | 101 nM | 
11 | CC(C)CC(Oc1ccc(C#N)c(C(F)(F)F)c1)C(=O)NCCc1ccc(O)cc1 (centres unmarked) [Example 61, 2-(4-Cyano-3-trifluoromethyl-phenoxy)-4-methyl-pentanoic acid-[2-(4-hydroxyphenyl)-ethyl]-amide] | 86 nM | 341 nM | 
12 | CC(C)CC(Oc1ccc(C#N)c(C(F)(F)F)c1)C(=O)NCCCc1cccnc1 (centres unmarked) [Example 62, 2-(4-Cyano-3-trifluoromethyl-phenoxy)-4-methyl-pentanoic acid-(3-pyridin-3-ylpropyl)-amide] | 192 nM | > 1000 nM | 
13 | CCCC(Oc1ccc(C#N)c(C(F)(F)F)c1)C(=O)NCCc1cccc(OC)c1 (centres unmarked) [Example 64, 2-(4-Cyano-3-trifluoromethyl-phenoxy)-pentanoic acid-[2-(3-methoxy-phenyl)ethyl]-amide] | 220 nM | > 1000 nM | 
14 | CCCC(Oc1ccc(C#N)c(C(F)(F)F)c1)C(=O)NCCc1c[nH]c2ccccc12 (centres unmarked) [Example 65, 2-(4-Cyano-3-trifluoromethyl-phenoxy)-pentanoic acid [2-(1H-indol-3-yl)ethyl]amide] | 33 nM | 64 nM | 
15 | CCCC(Oc1ccc(C#N)c(C(F)(F)F)c1)C(=O)NCCc1ccc(O)cc1 (centres unmarked) [Example 66] |  | 77 nM | 151 nM
16 | CC(C)CC(Oc1ccc(C#N)c(C(F)(F)F)c1)C(=O)NCC(c1ccccc1)N(C)C (centres unmarked) [Example 68, 2-(4-Cyano-3-trifluoromethyl-phenoxy)-4-methyl-pentanoic acid (2-dimethylamino-2-phenyl-ethyl)-amide] | 223 nM | > 1000 nM | 
17 | COc1ccc(CNC(=O)C(CC(C)C)Oc2ccc(C#N)c(C(F)(F)F)c2)cn1 (centres unmarked) [Example 72, 2-(4-Cyano-3-trifluoromethyl-phenoxy)-4-methyl-pentanoic acid-(6-methoxy-pyridin-3-yl-methyl)-amide] | 82 nM | 251 nM | 
18 | COc1ccc(CNC(=O)C(CC(C)C)Oc2ccc(C#N)c(C(F)(F)F)c2)cc1 (centres unmarked) [Example 73, 2-(4-Cyano-3-trifluoromethyl-phenoxy)-4-methyl-pentanoic acid-4-methoxy-benzylamide] | 92 nM | 428 nM | 
19 | CC(C)CC(Oc1ccc(C#N)c(C(F)(F)F)c1)C(=O)NCc1ccc(O)c(O)c1 (centres unmarked) [Example 74, 2-(4-Cyano-3-trifluoromethyl-phenoxy)-4-methyl-pentanoic acid-3,4-dihydroxy-benzylamide] | 139 nM | 976 nM | 
20 | Cc1ccc(NC(=O)C(CC(C)C)Oc2ccc(C#N)c(C(F)(F)F)c2)cc1O (centres unmarked) [Example 78, 2-(4-Cyano-3-trifluoromethyl-phenoxy)-4-methyl-pentanoic acid (3-hydroxy-4-methyl-phenyl)-amide] | 121 nM | 948 nM | 
21 | CC(C)CC(Oc1ccc(C#N)c(C(F)(F)F)c1)C(=O)N(CCO)C(C)C (centres unmarked) [Example 79, 2-(4-Cyano-3-trifluoromethyl-phenoxy)-4-methyl-pentanoic acid (2-hydroxy-ethyl)isopropyl-amide] | 3130 nM | > 1000 nM | 
22 | CCCOCCNC(=O)C(CC(C)C)Oc1ccc(C#N)c(C(F)(F)F)c1 (centres unmarked) [Example 81, 2-(4-Cyano-3-trifluoromethyl-phenoxy)-4-methyl-pentanoic acid (2-propoxy-ethyl)amide] | 142 nM | > 1000 nM | 
